Measured values: ChEMBL document CHEMBL1201862, “PubChem BioAssay data set” (2004)
Activity calls are given as the source filed them.

Experiments:
[1] = NIH-3T3 fibroblast cytotoxicity, dose response, cytotoxicity control, cell-based, fluorescence, Alamar Blue, secondary assay (AID 2327); format: functional;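 note: NIH-3T3 mouse fibroblasts cultured with fluconazole at 8 µg/mL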
[2] = fluconazole-exposed Candida albicans growth modulators – fluorescence, retest, confirmation (AID 2467); format: functional, cell-based
[3] = target: Luciferin 4-monooxygenase (Photinus pyralis, UniProt P08659); experiment: inhibition of purified Photinus pyralis luciferase – biochemical, luminescence, dose response (AID 1891)
[4] = Luminescence Cell-Based Dose Confirmation HTS to Identify Inhibitors of Platelet Dense Granule Release. [Related pubchem assays: 1663 (Primary HTS), 1678 (Summary of Project)]; format: functional
Protein skinhead-1 = target: T1, Protein skinhead-1 (Caenorhabditis elegans, UniProt P34707); format: functional
T1 sequence (P34707 whole entry): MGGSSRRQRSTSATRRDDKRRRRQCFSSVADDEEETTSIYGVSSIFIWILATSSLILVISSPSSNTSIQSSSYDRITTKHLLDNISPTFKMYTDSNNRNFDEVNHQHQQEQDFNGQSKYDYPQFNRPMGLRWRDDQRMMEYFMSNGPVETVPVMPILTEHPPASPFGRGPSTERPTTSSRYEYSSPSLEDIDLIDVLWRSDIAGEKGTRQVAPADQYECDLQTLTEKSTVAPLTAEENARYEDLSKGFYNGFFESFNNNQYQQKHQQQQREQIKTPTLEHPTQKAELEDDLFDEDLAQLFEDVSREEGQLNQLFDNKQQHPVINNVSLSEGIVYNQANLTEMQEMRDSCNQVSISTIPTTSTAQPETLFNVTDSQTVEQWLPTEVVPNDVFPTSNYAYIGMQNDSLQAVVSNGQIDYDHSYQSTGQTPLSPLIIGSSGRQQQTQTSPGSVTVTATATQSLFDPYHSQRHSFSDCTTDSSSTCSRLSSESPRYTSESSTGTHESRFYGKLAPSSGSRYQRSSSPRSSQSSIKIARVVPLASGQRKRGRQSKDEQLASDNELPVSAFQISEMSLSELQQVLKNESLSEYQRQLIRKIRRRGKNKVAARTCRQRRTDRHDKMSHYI

[5] = blockers of HIV-1 envelope-mediated cell-cell fusion – cherry-pick, dose response (AID 652057); format: functional, cell-based
[6] = blockers of HIV-1 ZM109 envelope-driven cell-cell fusion – HeLa effector, CEM target cells, luciferase, cherry-pick, dose response (AID 652058); format: functional, cell-based;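 note: luciferase signal from HIV-1 Env mediated cell-cell fusion of effector and target cells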
[7] = HIV-1 AD8 envelope cell-cell fusion blockers – cherry-pick, dose response (AID 652062); format: functional, cell-based;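 note: luciferase signal from cell-cell fusion driven by HIV-1 clade B AD8 Env; potency is for inhibitors of fusion seen as a drop in luminescence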
cells [8] = format: functional, cell-based
cells [9] = format: functional, cell-based; remark: listed apart in the source
[10] = target: Induced myeloid leukemia cell differentiation protein Mcl-1 (Homo sapiens, UniProt Q07820); format: functional
BJ [11] = experiment: BJ-TERT fibroblast viability loss – cell-based, RAS-independent, luminescence, dose response (AID 1933); format: functional; conditions: Homo sapiens
BJ [12] = experiment: cells; format: functional, cell-based; conditions: Homo sapiens
BJ [13] = experiment: BJ-TERT-LT-ST fibroblast viability loss – cell-based, RAS-independent, luminescence, dose response (AID 1935); format: functional; conditions: Homo sapiens;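 note: BJ fibroblasts immortalized with TERT plus LT and ST oncogenes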
[14] = DRD fibroblast viability loss – cell-based, non-viral oncogenic, luminescence, dose response (AID 1934); format: functional; conditions: Homo sapiens
[15] = A549 cell cytotoxicity, dose response, cytotoxicity control, plate reader, cherry-pick, antagonist series (AID 743412); format: functional, cell-based
[16] = toxicity toward HepG2 liver cells – cell-based, plate reader, cherry-pick, antagonist series, cytotoxicity control, dose response (AID 743416); format: functional
[17] = blockers of bursicon-stimulated LGR2 cAMP reporter – cell-based, HEK293, CRE-luciferase reporter, cherry pick, set 2, dose response (AID 743343); format: functional;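 note: transfected cells were stimulated with diluted bursicon conditioned medium after compound addition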
[18] = blockade of melanocortin 4 receptor signaling – cell-based, plate reader, cherry pick, counter-screen for LGR2 antagonist project, dose response (AID 743444); format: functional;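 note: transfected HEK 293 cells stimulated with alpha-MSH peptide; potency of inhibitors of the alpha-MSH evoked signal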
[19] = viability loss in HEK293 cells – cell-based, plate reader, cherry-picked samples, cytotoxicity control, dose response (AID 743446); format: functional
[20] = viability of uninfected HEp-2 cells – cell-based, HTS, cytotoxicity control for RSV inhibitor project, dose response (AID 2410); format: functional; conditions: human respiratory syncytial virus
cells [21] = format: functional
[22] = target: T2, Polyadenylate-binding protein 1 (Homo sapiens, UniProt P11940); experiment: MLLE binding blockers, Cy5 peptide tracer – biochemical, fluorescence polarization, Cy5-PAM2 peptide, secondary, miRNA deadenylation inhibitor project, dose response (AID 602260); format: functional; conditions: read-out: IC50_Mean
[23] = target: T2, Polyadenylate-binding protein 1; experiment: MLLE domain peptide-binding blockers, IC50 – biochemical, fluorescence polarization, FITC-PAM2 peptide, dose response (AID 602259); format: functional; conditions: read-out: IC50_Mean
[24] = target: Glyceraldehyde-3-phosphate dehydrogenase (Homo sapiens, UniProt P04406)
[25] = reduction of Shn3 3'UTR-driven luciferase in osteoblasts – cell-based, Clone20 osteoblasts, firefly luciferase, cherry-picked, dose response (AID 624132); format: functional;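 note: firefly luciferase luminescence from reporter carrying the Shn3 3'UTR in osteoblasts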
[26] = non-specific 3'UTR reporter inhibition in Clone20-Shn3RL – cell-based, Renilla luciferase, cherry-picked, counter-screen for Shn3 inhibitor project, dose response (AID 624133); format: functional
[27] = Luminescence Cell-Based Dose Response HTS to Identify Activators of Luciferase Translation or Activity in H4 […] Cells. [Related pubchem assays: 1829 (Project Summary), 1814 (Primary HTS)]; format: functional
H4 = experiment: Luminescence Cell-Based Dose Response HTS to Identify Activators of 5'UTR Stem-Loop Driven Prion Protein mRNA Translation in H4 Neuroglioblastoma Cells. [Related pubchem assays: 1829 (Project Summary), 1814 (Primary HTS)]; format: functional; conditions: Homo sapiens
Large T antigen = Large T antigen (Simian virus 40, UniProt P03070); format: functional, Betapolyomavirus macacae;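 note: Confirmatory-stage PubChem screen for compounds that inhibit SV40 T antigen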
[28] = P. falciparum Dd2 growth inhibitors, dose response, SYBR Green, cherry-picked samples (AID 1159567); format: functional, cell-based

Induced myeloid leukemia cell differentiation protein Mcl-1, sequence (Q07820 whole entry): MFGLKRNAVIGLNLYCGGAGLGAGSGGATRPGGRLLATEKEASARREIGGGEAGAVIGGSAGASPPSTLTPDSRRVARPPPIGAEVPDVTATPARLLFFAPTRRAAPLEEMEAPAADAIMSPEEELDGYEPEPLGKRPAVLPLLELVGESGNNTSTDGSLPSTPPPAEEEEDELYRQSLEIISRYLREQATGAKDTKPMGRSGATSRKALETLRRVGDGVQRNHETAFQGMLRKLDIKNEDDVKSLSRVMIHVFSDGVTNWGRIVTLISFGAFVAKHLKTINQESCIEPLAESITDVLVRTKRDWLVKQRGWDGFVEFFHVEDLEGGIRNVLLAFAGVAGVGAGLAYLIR
T2 sequence (P11940 whole entry, the tested form may be a part): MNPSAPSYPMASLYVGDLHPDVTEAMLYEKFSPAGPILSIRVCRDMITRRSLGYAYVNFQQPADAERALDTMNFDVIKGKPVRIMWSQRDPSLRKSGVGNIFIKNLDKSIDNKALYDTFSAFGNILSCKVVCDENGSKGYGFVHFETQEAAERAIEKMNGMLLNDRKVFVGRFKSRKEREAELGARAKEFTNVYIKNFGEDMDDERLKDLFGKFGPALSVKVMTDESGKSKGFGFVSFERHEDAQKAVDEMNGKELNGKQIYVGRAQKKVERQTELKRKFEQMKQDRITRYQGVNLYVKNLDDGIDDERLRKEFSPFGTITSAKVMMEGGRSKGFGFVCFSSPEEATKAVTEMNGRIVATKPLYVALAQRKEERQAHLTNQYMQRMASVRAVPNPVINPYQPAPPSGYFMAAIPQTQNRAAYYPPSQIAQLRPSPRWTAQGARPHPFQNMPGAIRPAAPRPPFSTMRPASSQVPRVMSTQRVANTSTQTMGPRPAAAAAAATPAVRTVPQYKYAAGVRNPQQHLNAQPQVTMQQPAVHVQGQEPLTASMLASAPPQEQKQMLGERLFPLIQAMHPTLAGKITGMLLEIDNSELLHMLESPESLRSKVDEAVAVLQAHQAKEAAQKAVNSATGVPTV
Luciferin 4-monooxygenase, sequence (P08659 whole entry): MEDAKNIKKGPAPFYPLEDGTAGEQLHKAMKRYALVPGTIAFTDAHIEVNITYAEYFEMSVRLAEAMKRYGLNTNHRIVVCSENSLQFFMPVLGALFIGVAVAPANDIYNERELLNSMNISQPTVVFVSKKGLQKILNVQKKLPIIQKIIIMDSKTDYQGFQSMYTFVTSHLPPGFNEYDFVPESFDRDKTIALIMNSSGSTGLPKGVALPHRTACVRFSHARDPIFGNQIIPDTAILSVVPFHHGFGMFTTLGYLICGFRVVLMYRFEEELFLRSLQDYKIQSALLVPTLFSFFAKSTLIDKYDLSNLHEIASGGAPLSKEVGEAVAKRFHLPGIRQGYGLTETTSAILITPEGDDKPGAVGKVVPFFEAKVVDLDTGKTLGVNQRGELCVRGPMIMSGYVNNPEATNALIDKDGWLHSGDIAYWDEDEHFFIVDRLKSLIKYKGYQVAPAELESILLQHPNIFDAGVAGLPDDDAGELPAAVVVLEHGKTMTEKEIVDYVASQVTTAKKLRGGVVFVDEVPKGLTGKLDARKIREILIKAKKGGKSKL
Glyceraldehyde-3-phosphate dehydrogenase, sequence (P04406 whole entry): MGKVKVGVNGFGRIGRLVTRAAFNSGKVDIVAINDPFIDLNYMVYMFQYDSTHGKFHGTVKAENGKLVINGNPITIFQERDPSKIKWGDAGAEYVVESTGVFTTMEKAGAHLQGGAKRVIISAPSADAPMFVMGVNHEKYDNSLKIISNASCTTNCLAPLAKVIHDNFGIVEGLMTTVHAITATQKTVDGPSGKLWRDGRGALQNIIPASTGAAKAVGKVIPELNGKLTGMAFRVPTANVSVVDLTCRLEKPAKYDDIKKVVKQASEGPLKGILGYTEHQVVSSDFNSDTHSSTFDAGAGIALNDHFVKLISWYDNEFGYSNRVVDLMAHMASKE
Large T antigen, sequence (P03070 whole entry): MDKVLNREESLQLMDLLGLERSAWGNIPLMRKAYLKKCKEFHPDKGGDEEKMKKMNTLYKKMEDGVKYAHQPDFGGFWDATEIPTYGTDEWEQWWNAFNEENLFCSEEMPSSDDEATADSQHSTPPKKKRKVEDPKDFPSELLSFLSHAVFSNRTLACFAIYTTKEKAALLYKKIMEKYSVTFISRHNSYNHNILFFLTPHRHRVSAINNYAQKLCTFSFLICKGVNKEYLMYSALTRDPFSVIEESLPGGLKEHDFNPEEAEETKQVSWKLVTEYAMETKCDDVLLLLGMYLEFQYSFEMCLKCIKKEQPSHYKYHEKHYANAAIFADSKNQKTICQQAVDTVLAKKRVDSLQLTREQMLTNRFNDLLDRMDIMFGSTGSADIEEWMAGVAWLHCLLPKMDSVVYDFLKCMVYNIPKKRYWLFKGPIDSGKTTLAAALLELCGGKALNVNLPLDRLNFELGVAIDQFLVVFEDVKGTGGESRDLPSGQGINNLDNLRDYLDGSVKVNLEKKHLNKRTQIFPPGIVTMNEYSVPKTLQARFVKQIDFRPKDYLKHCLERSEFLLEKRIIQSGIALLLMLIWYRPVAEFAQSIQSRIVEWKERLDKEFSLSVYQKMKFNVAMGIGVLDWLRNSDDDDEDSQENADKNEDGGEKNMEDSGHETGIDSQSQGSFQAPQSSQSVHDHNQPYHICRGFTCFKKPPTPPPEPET

SMILES: CCCCN(CCCC)S(=O)(=O)c1ccc(C(=O)Nc2nnc(COC)o2)cc1
- EC50 [1]: > 150 µM (inconclusive)
- EC50 [2]: 2.92 µM (active)

SMILES: O=C(/C=C/Nc1ccc(F)cc1F)c1cccs1
- EC50 [3]: 1.09 µM (active)
- EC50 [4]: 4.23 µM (active)
- IC50 (Protein skinhead-1): 73.4 µM (inactive)

SMILES: COc1ccc(S(=O)(=O)Nc2ccc3c(c2)CC(=O)N([C@@H](C)CO)C[C@H](C)[C@H](CN(C)S(=O)(=O)c2cccs2)O3)cc1
- AC50 [5]: 7.42 µM (active)
- AC50 [6]: 1.15 µM (active)
- AC50 [7]: 25.1 µM (active)

SMILES: CC(=O)Nc1ccc(NC(=O)CCC(=O)OCC(=O)c2ccc(F)cc2)cc1
- EC50 (cells [8]): > 350 µM (not active)
- EC50 (cells [9]): > 350 µM (not active)

SMILES: Cc1nc2ccccc2nc1OCc1ccccc1
- IC50 (Protein skinhead-1): 18.2 µM (active)

SMILES: Clc1cccc(/C=N/Nc2nc(Cl)nc3ccccc23)c1
- IC50 [10]: 19 µM (not active)

SMILES: Cc1ccc(/C=N/NC(=O)c2ccc3ccccc3c2)s1
- EC50 (BJ [11]): 4.71 µM (inconclusive)
- EC50 (BJ [12]): 96.4 µM (inconclusive)
- EC50 (BJ [13]): 62.1 µM (active)
- EC50 [14]: 18 µM (inconclusive)

SMILES: COc1cccc(-c2ncn(CCc3ccccc3OC)c2CC(C)C)c1
- AC50 [15]: 23.6 µM (active)
- AC50 [16]: 22.3 µM (active)
- AC50 [17]: 23.6 µM (active)
- AC50 [18]: 22.2 µM (active)
- AC50 [19]: > 52 µM (inactive)

SMILES: O=C(Nc1ccc(Cl)cc1)Nc1ccccc1C(=O)O
- EC50 [3]: < 0.088 µM (active)
- EC50 [4]: 5.21 µM (active)
- AC50 [15]: > 52 µM (inactive)
- AC50 [17]: 9.59 µM (active)
- AC50 [18]: 6.99 µM (active)

SMILES: O=C(NCC1CCCO1)c1cc2c([nH]c3ccccc32)c(-c2ccc(F)cc2)n1 (configuration not stated)
- EC50 (BJ [11]): 30.7 µM (active)
- EC50 (BJ [12]): 23.9 µM (active)
- EC50 (BJ [13]): > 150 µM (not active)
- EC50 [14]: 23.6 µM (active)

SMILES: CN(C)CCCN(C(=O)CCS(=O)(=O)c1ccccc1)c1nc2cc3c(cc2s1)OCO3
- EC50 (cells [8]): > 350 µM (not active)
- EC50 (cells [9]): > 350 µM (not active)

SMILES: COc1ccc(Nc2nc(C(=O)NCCCN3CCOCC3)cs2)cc1
- IC50 (Protein skinhead-1): > 100 µM (inactive)

SMILES: Cn1ncc(Br)c1NC(=O)CSc1ccc(Cl)cc1
- EC50 (cells [8]): > 350 µM (not active)
- EC50 (cells [9]): 181 µM (active)

SMILES: CCOC(=O)Cc1csc(NC(=O)c2ccc3ncsc3c2)n1
- EC50 [1]: > 160 µM (inactive)
- EC50 [2]: > 38 µM (not active)

SMILES: COc1ccc(CNC(=O)N(C)C[C@H]2OCc3ccccc3-c3c(n(C)c4ccccc34)C(=O)N([C@@H](C)CO)C[C@@H]2C)cc1
- AC50 [5]: < 0.26 µM (active)
- AC50 [6]: < 0.26 µM (active)
- AC50 [7]: < 0.26 µM (active)

SMILES: COc1cccc(/C=C2\CC(C)Cc3c2nc2ccccc2c3C(=O)O)c1OC (configuration not stated)
- IC50 (Protein skinhead-1): > 100 µM (inactive)

SMILES: COC(=O)CCn1c(C)cc(C(=O)COc2ccccc2C(N)=O)c1C
- CC50 [20]: 9.72 µM (active)
- EC50 (BJ [11]): 58.1 µM (active)
- EC50 (BJ [12]): > 150 µM (not active)
- EC50 (BJ [13]): > 150 µM (inconclusive)
- EC50 [14]: > 150 µM (not active)
- IC50 (cells [21]): 19.8 µM (active)

SMILES: CCOC(=O)c1sc(=S)n(-c2cccc(OC)c2)c1N
- IC50 [22]: > 66 µM (inactive)
- IC50 [23]: > 66 µM (inactive)

SMILES: O=C(O)CCCCCN1C(=O)C(O)=C(C(=O)/C=C/c2ccccc2)C1c1ccccc1[N+](=O)[O-] (configuration not stated)
- IC50 [22]: > 66 µM (inactive)
- IC50 [23]: > 66 µM (inactive)

SMILES: Cc1ccc2nc(-c3ccc(NC(=O)COC(=O)c4ccco4)cc3)sc2c1
- CC50 [20]: 14.1 µM (active)
- AC50 [17]: 2.95 µM (active)
- AC50 [18]: 3.55 µM (active)

SMILES: O=C(Nc1ccc(Cl)cc1)Nc1nnc(/C=C/c2ccccc2)s1
- IC50 [10]: 5.89 µM (active)

SMILES: COc1cccc(N2CCN(C3=C(Cl)C(=O)N(c4ccc(C(F)(F)F)cc4)C3=O)CC2)c1
- IC50 [24]: > 50 µM (inconclusive)

SMILES: CN(Cc1ccccc1)S(=O)(=O)c1ccc(C(=O)O)o1
- IC50 [24]: > 100 µM (not active)

SMILES: CN(C)c1ccc(C(=O)N/N=C/c2cc(Br)cc(Br)c2O)cc1
- EC50 [1]: 14 µM (active)
- EC50 [2]: > 38 µM (not active)

SMILES: CCCSc1cc(N)cc([N+](=O)[O-])c1
- EC50 [1]: > 160 µM (inconclusive)
- EC50 [2]: > 38 µM (not active)

SMILES: Clc1ccc(-n2nnc(-c3nccs3)n2)cc1Cl
- IC50 (Protein skinhead-1): > 100 µM (inactive)

SMILES: COc1cc(/C=C/C(=O)Nc2cc(S(=O)(=O)N3CCOCC3)ccc2N2CCCC2)cc(OC)c1OC
- IC50 [22]: > 66 µM (inactive)
- IC50 [23]: > 66 µM (inactive)

SMILES: CCOC(=O)c1cnc2ccc(Cl)cc2c1NCCN(C)C
- IC50 [22]: > 66 µM (inactive)
- IC50 [23]: > 66 µM (inactive)

SMILES: COC(=O)[C@@]12CCCCN1[C@H](c1ccc(SC3CCCCC3)c(OC)c1)[C@@H]1C(=O)N(C)C(=O)[C@@H]12
- AC50 [25]: 21.4 µM (active)
- AC50 [26]: 24.2 µM (active)

SMILES: CCOC(=O)c1cccc(NC2c3ccccc3C(=O)N2Cc2ccco2)c1 (configuration not stated)
- AC50 [25]: 4.26 µM (active)
- AC50 [26]: 1.94 µM (active)

SMILES: O=C(Nc1cc2ccccc2oc1=O)c1ccccc1
- AC50 [15]: 31.5 µM (active)
- AC50 [16]: 41 µM (active)
- AC50 [17]: 1.69 µM (active)
- AC50 [18]: 3.08 µM (active)
- AC50 [19]: 37.2 µM (active)

SMILES: CCOc1ccc2nc(NN=C3C(=O)CC(C)(C)CC3=O)sc2c1
- EC50 [1]: > 160 µM (inactive)
- EC50 [2]: 9.16 µM (active)

SMILES: O=C(C[C@@H]1C=C[C@H](NC(=O)c2ccccc2)[C@H](CO)O1)NCc1ccc(Oc2ccccc2)cc1
- AC50 [5]: 24.7 µM (active)
- AC50 [6]: 24.1 µM (active)
- AC50 [7]: 35 µM (active)

SMILES: Cn1c(N)c(C(=O)COC(=O)c2cc(-c3ccco3)nc3ccccc23)c(=O)n(Cc2ccccc2)c1=O
- IC50 [10]: 2.95 µM (active)

SMILES: Cc1ccc2c(c1)NC(=O)c1cccnc1N2
- EC50 [27]: 61.7 µM (active)
- EC50 (H4): > 120 µM (not active)
- IC50 (Large T antigen): 10.2 µM (active)
- IC50 [10]: 10.5 µM (not active)

SMILES: COc1ccccc1CNC(=O)C1CCN(C(=O)N(C)C)CC1
- IC50 (Protein skinhead-1): > 100 µM (inactive)

SMILES: CN(C)CC(=O)N1[C@H](CO)[C@H](c2ccc(-c3cccc(C(=O)N(C)C)c3)cc2)[C@@H]1C#N
- AC50 [28]: 7.56 µM (active)
